Results as given in patent publication US20040175568A1, “Fullerodendrimer-comprising film” (priority 2003, published 2004).

Test: Oxidation and reduction potential of fullerodendrimer
Assay type: physicochemical

c12c3c4c5c1c1c6c7c2c2c8c3c3c9c4c4c%10c5c5c1c1c6c6c%11c7c2c2c7c8c3c3c8c9c4c4c9c%10c5c5c1c1c6c6c%11c2c2c7c3c3c8c4c4c9c5c1c1c6c2c3c41 [Example C60, C60]
first oxidation potential: +1,120 mV
first reduction potential: −1,120 mV
